According to BindingDB's records for patent US12226405 (Novartis, 2025):
pIC50: −log10 of the molar value.

Molecular target: Endothelial PAS domain-containing protein 1 (Homo sapiens, UniProt Q99814)
Assay: Scintillation Proximal Assay (SPA)
Description: Compounds (tested using a 14-point dose response with 3-fold compound dilutions from 100 μM to 60 pM) were pre-incubated for 30 min with HIF2α PAS-B domain (236-350, biotinylated on the N-terminus), before addition of the radio-ligand. […] Duplicates were made using 2 different plates, and mean IC50 values were determined using the Helios system based on the following equation: % inhibition=[(high control−sample)/(high control−low control)]×100. The IC50 values in the Tabulated HIF2α activities are the average from 1 to 10 independent experiments.

Endothelial PAS domain-containing protein 1, sequence (Q99814 whole entry, the tested form may be a part): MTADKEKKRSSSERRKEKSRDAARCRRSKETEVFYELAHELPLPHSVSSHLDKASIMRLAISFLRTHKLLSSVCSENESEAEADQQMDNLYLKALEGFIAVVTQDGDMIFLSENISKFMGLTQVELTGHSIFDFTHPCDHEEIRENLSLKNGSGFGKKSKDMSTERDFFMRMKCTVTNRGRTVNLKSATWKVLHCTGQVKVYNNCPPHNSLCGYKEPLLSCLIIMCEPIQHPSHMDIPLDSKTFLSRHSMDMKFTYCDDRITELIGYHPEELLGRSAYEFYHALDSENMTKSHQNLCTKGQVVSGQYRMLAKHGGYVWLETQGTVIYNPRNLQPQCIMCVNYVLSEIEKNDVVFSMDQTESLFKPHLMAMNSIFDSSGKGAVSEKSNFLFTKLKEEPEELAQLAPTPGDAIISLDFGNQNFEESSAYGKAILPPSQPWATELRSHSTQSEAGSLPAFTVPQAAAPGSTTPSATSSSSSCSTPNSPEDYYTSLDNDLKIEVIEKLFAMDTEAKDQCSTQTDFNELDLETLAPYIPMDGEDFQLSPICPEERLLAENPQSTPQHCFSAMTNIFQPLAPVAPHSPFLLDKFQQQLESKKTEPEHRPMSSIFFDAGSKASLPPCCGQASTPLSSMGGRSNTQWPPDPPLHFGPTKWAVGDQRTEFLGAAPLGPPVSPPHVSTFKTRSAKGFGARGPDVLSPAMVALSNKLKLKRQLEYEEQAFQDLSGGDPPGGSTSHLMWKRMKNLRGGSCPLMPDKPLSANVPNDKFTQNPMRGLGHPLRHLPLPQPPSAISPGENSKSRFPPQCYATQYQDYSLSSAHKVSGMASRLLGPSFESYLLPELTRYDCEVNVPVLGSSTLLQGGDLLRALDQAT

pIC50: 8.10
SMILES: FC(F)OC1=CC(C(F)(F)F)=CN2C[C@@]3(CCc4cc(C(F)(F)F)ccc43)N=C12 [US12226405, Example 6]
